Assay results as given in article PMC5829251, “NAD^+ analog reveals PARP-1 substrate-blocking mechanism and allosteric communication from catalytic center to DNA-binding domains” (Nature Communications, 2018).

What was measured:
Assay type in all cases: binding
PARP-2 = molecular target: T1, PARP-2 (Homo sapiens, UniProt Q9UGN5); assay: DSF, full-length PARP-2 with or without DNA; conditions: for TM: Figure 3c, BAD 1250 μM, in °C (unit assumed)
T1 construct: PARP-2 (isoform 2, residues 1–570) was cloned in pET28 vector; made in house
Method: (§1) DSF experiments were performed as described, [13] using 5 µM protein, 2.5 µM DNA when indicated and various concentrations of compound (BAD, carba-NAD^+, benzamide, and ADP-ribose) as indicated in Fig. 1 and Fig. 3. Experiments were performed on a Roche LightCycler 480 RT-PCR. Reactions including DNA were performed with a 26- or 28-base pair (bp) unphosphorylated oligonucleotide for PARP-1, a 28-bp 5´-phosphorylated (5´P) oligonucleotide for PARP-2, and a 47-bp oligonucleotide including a central 5´P nick for PARP-3^13 in the following buffer: 25 mM Hepes pH 8.0, 150 mM NaCl, 1 mM EDTA, and 0.1 mM TCEP. Reactions with PARP-3 were conducted at lower ionic strength to allow binding to DNA as described (25 mM Hepes pH 8.0, 50 mM NaCl, 1 mM EDTA and 0.1 mM TCEP)[13]. ΔTM values were calculated by subtracting the TM determined for the protein in the absence of compound from the TM determined in the presence of compound. Experiments were performed in triplicate and a Boltzmann sigmoid was fit to the data to determine the TM values (KaleidaGraph).

[1] = molecular target: T2, PARP-1 double mutant D766/D770A (Homo sapiens, UniProt P09874, D766A/D770A); assay: DSF, full-length PARP-1 D766/D770A; conditions: BAD 1250 μM
T2 construct: Full-length PARP-1 WT (residues 1–1014) was cloned in pET28 vector and site-directed mutagenesis was performed; made in house; host or cells: E. coli
Method: as §1

full-length PARP-1 WT = molecular target: T3, full-length PARP-1 WT (Homo sapiens, UniProt P09874); assay: One-dimensional 1H NMR monitoring BAD protons
T3 construct: Full-length PARP-1 WT (residues 1–1014) was cloned in pET28 vector; made in house; host or cells: E. coli
Method: Full-length PARP-1 WT and a dumbbell DNA containing a central 1-nucleotide gap (5′-[…]-3′)[7], were dialyzed against a modified PBS buffer (222 mM NaCl, 2.7 mM KCl, 200 μM DTT, 10 mM sodium phosphate, pH 7.4). An aliquot of the dialysis PBS buffer was then lyophylized and resuspended in deuterated water (D2O). The NMR samples were prepared by diluting the protein (40 μM final), DNA (40 μM final), and BAD (20 μM final) in the deuterated buffer such that all samples contained 85% D2O final. The samples were incubated 30 min at RT prior to collecting the NMR spectra. ^1H (700.303 MHz) NMR spectra were acquired with a Bruker Avance II 700 spectrometer equipped with a 16.4 T narrowbore magnet and a double-resonance (^1 H/^13 C) cryoprobe. All samples were run using 3 mm NMR tubes (180 µL). 1D experiments were acquired with excitation sculpting to suppress residual water signal. The use of D2O as the primary solvent (85%) removed the signals from amide hydrogens in the region of interest (7–9 ppm), however a low-power T1p filter (70 ms) was necessary after the 90-degree excitation pulse to reduce signals from the non-exchangeable hydrogens arising from the large, slowly tumbling protein and DNA.

T1 sequence (Q9UGN5 1-570 isoform Q9UGN5-2): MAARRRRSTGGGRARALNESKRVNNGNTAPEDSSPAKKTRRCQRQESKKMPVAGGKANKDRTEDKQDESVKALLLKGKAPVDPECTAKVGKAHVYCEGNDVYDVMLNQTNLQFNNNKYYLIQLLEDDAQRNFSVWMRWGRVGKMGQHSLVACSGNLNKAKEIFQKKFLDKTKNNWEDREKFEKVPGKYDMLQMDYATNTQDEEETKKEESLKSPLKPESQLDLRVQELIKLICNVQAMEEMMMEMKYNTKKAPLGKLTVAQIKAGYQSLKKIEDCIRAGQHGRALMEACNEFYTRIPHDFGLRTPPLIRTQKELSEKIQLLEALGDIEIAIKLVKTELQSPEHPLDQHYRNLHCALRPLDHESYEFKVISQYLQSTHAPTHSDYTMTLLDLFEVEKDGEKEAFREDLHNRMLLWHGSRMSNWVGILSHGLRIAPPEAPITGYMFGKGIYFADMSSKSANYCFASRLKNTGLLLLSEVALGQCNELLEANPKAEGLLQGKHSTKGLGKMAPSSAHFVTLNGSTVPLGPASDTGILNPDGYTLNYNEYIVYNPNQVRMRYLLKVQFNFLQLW
T3 sequence (P09874 whole entry, the tested form may be a part): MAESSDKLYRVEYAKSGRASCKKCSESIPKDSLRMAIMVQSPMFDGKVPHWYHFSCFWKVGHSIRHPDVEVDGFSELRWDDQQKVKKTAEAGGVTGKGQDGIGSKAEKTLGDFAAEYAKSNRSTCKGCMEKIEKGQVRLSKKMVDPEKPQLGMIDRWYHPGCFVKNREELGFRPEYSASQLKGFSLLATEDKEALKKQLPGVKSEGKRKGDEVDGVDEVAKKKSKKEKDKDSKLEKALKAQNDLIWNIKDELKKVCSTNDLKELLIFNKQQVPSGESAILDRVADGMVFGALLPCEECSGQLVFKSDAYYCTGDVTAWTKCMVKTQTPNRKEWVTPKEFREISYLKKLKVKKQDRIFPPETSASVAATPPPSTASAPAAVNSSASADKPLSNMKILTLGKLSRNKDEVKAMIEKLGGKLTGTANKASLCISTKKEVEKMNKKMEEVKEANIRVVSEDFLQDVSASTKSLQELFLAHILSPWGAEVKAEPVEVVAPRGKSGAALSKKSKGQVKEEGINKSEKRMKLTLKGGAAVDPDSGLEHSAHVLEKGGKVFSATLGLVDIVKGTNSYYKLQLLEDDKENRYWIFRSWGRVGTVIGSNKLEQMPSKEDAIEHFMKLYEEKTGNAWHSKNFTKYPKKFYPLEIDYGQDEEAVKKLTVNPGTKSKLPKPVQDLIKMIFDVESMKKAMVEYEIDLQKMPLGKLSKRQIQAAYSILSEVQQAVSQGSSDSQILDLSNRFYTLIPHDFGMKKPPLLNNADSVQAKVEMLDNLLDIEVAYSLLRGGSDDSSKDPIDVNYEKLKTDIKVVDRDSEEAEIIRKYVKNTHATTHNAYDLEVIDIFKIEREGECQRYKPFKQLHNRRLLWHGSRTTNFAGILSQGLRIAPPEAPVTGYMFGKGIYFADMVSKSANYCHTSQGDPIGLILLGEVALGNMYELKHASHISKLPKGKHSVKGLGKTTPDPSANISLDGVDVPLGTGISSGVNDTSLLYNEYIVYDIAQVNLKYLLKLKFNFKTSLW
T2 sequence (P09874 whole entry D766A/D770A, the tested form may be a part): as the sequence (P09874 whole entry, the tested form may be a part) above, with D766A, D770A counted along it

SMILES: NC(=O)c1cccc(C2OC(COP(=O)(O)OP(=O)(O)OCC3OC(n4cnc5c(N)ncnc54)C(O)C3O)C(O)C2O)c1 (stereo not shown) [BAD, benzamide adenine dinucleotide]
- TM (PARP-2; PARP-2, no DNA, TM without BAD 47.71): 47.47
- TM (PARP-2; PARP-2 with DNA (2.5 μM, 28-bp duplex 5'P), TM without BAD 45.44): 47.28
- evidence of BAD binding in the DSF assay (PARP-2; PARP-2, with or without DNA bearing 5'P): only showed evidence of BAD binding in the presence of activating DNA
- TM ([1]; Figure 3a, no DNA, TM without BAD 45.94): 48.5 °C
- TM change in the presence of BAD ([1]; did not require the presence of DNA): increase in TM
- level of signal reduction of BAD spectrum peaks (full-length PARP-1 WT; BAD 20 μM with PARP-1 40 μM and DNA 40 μM (dumbbell DNA, central 1 nt-gap)): ~ 95%
- BAD spectrum compared with BAD alone (full-length PARP-1 WT; BAD 20 μM with PARP-1 40 µM, no DNA): essentially identical spectrum
